pIC50: −log10 of the molar value.

The experiment addresses SARM1 (Homo sapiens (Human), UniProt Q6SZW1). Nature of the experiment: ARM-SAM-TIR SARM1 IC50 assay (NADase activity, RapidFire mass spectrometry). Type of experiment: biochemical. The following applies: ARM-SAM-TIR lysate 5 µg/mL, 2 h pre-incubation with compound, 5 µM NAD+, 2 hr at room temperature. The text has this: This Example describes an assay of ARM-SAM-TIR NADase activity and use of this assay to measure the efficacy of compounds of Formula I/II to block SARM1 mediated NAD+ cleavage. This assay was optimized in such a way as to characterize the efficacy of the compounds in Formula I/IIto inhibit SARM1 activity and to calculate an IC50 value for each compound. This assay makes use of […], which encompasses the ARM, SAM and TIR domains. […] The next day, the cells were transfected with 15 μg ARM-SAM-TIR expression plasmid, SEQ ID NO: 1. The cultures were supplemented with 1 mM NR at time of transfection to minimize toxicity from ARM-SAM-TIR overexpression. Forty-eight hours after transfection, cells were harvested, pelleted by centrifugation at 1,000 rpm (Sorvall ST 16R centrifuge, Thermo Fisher), and washed once with cold PBS (0.01 M phosphate buffered saline NaCl 0.138 M; KCl 0.0027 M; pH 7.4). The cells were resuspended in PBS with protease inhibitors (cOmpleteTM protease inhibitor cocktail, Roche product # 11873580001) and cell lysates were prepared by sonication (Branson Sonifer 450, output = 3, 20 episodes of stroke). The lysates were centrifuged (12,000×g for 10 min at 4° C.) to remove cell debris and the supernatants (containing ARM-SAM-TIR protein) were stored at -80° C. for later use in the in vitro ARM-SAM-TIR NADase assay (see below). Protein concentration was determined by the Bicinchoninic (BCA) method and used to normalize lysate concentrations. The enzymatic assay was performed in a 384-well polypropylene plate in Dulbecco's PBS buffer in a final assay volume of 20 μL. […] The reaction was initiated by addition of 5 μM final assay concentration of NAD+ as substrate. After a 2 hr room temperature incubation, the reaction was terminated with 40 μL of stop solution of 7.5% trichloroactetic acid in acetonitrile. The NAD+ and ADPR concentrations were analyzed by a RapidFire High Throughput Mass Spectrometry System (Agilent Technologies, Santa Clara, CA) using an API4000 triple quadrupole mass spectrometer (AB Sciex Framingham, MA).

Sequence of SARM1 (Q6SZW1 other isoform, or with tags, fused parts or gaps): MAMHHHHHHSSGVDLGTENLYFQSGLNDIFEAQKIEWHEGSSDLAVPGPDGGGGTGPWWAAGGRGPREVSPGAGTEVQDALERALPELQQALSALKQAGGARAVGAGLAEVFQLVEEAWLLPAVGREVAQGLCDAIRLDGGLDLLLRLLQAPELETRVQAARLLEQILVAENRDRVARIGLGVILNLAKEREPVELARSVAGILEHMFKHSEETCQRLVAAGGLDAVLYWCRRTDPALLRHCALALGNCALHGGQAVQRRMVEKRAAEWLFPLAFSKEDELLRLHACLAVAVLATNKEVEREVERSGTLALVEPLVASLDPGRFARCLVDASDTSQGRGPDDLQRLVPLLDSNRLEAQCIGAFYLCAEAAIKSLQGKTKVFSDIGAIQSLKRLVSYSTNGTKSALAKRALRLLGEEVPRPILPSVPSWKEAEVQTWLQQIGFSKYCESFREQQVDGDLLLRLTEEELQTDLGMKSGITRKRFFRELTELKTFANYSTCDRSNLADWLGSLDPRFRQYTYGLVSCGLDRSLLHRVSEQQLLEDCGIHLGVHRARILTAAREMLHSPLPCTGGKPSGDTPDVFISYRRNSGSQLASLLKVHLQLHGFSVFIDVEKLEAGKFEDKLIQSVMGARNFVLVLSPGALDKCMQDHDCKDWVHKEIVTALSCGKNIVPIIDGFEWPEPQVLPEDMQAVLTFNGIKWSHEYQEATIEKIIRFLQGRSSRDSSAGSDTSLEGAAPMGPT

In the case of `O=C(NCc1ccccc1)c1ccnc2c(-c3ccncc3)n[nH]c12` [Example 7], the pIC50 was 5.30 to 6.00.
Consider `O=C(NCc1ccc(Cl)cc1)c1cccc2c(-c3ccncc3F)n[nH]c12` [Example 10], for which the pIC50 was greater than 7.00.
The result for `O=C(NCc1ccc(Cl)cc1)c1cncc2c(-c3ccncc3)n[nH]c12` [Example 4] reads greater than 7.00.
In the case of `O=C(NCc1ccc(Cl)cc1)c1cccc2c(-c3ccncc3)n[nH]c12` [Example 1], the pIC50 was greater than 7.00.
The value for `O=C(NCc1ccc(Cl)cc1)c1ccnc2c(-c3ccncc3)n[nH]c12` [Example 5] was greater than 7.00; that for `O=C(NCc1ccc(Cl)s1)c1cccc2c(-c3ccncc3F)n[nH]c12` [Example 13] was 6.00 to 7.00.
With `O=C(NCc1ccccc1)c1cncc2c(-c3ccncc3)n[nH]c12` [Example 6], the negative-log IC50 (pIC50) is 6.00 to 7.00.
The result for `C[C@H](NC(=O)c1cccc2c(-c3ccncc3)n[nH]c12)c1ccc(Cl)cc1` [Example 8] reads less than 5.00; that for `O=C(NCc1ccc(Cl)c(F)c1)c1cccc2c(-c3ccncc3F)n[nH]c12` [Example 12], greater than 7.00.
The result for `O=C(NCc1ccc(Cl)nc1)c1cccc2c(-c3ccncc3)n[nH]c12` [Example 9] reads 6.00 to 7.00.
The value for `O=C(NCc1ccccc1)c1cccc2c(-c3ccncc3)n[nH]c12` [Example 2] was 6.00 to 7.00.

The pIC50 is the negative decadic logarithm of the IC50, by convention in mol/L.
